Each structure is given as a SMILES string. Where two headings read alike, the source gives them in different places.

This is an account of results in patent EP1863471B9, “USE OF ANGELIC ACID ESTERS AS AN ANTIPHLOGISTIC ACTIVE INGREDIENT AND ANTIPHLOGISTIC PREPARATIONS” (Miltitz Aromatics GmbH, priority 2005, dated 2006).

Test [1] relates to Carrageenin-induzierten Rattenpfotenödem. As to conditions: literature values from V. Jakovlev et al., Journal of Medicinal Plant Research 35 (1979), 125-140, corresponding test conditions, cited from earlier work.
For test [2] the test system is unchanged. Briefly: Carrageenin-induced rat paw oedema, oral administration of test substance. Type of test: in vivo, Ratte. As to conditions: for ED50: oral administration, calculated from dose-dependent percent inhibition of oedema development, own tests. The text has this:
Die antiinflammatorische Wirkung von Isobutylangelat wurde am Carrageenin-induzierten ([…]) Rattenpfotenödem getestet. Isobutylangelat wurde oral verabreicht.
Die Testbedingungen entsprachen den in der Literatur verwendeten, so dass Quervergleiche hergestellt werden konnten. (V. Jakovlev et al. in Journal of Medicinal Plant Research 35 (1979), 125-140).
Als Vergleichssubstanz in den eigenen Tests diente (-)-alpha-Bisabolol. Dosisabhängig wurde die prozentuale Hemmung der Ödementwichlung bestimmt. Daraus ließ sich der ED50 Wert errechnen.
Dosierungen von 100, 464, 1000 und 2150 mg Isobutylangelat/kg Körpergewicht wurden getestet. Die Ergebnisse wurden mit den für eine Kontrollgruppe (0,8 % Hydroxypropylmethylcellulose Gel) und zusätzlich den für die positive Kontrolle ((-)-alpha- Bisabolol) erhaltenen Werten verglichen.

Turning to `CC(C)=CCC[C@](C)(O)[C@@H]1CC=C(C)CC1` [Dragosantol], the “ED50” value in test [1] was more than 3000 mg/kg.
On to `C/C=C(/C)C(=O)OCC(C)C` [Isobutylangelat], for which the ED50 in test [2] is 2310 mg/kg. Further, in test [2] (oral, doses tested 100, 464, 1000 and 2150 mg/kg body weight, read-out: dosisabhängige antiinflammatorische Wirkung, beginnend bei), the minimal effective dose was not below 100 mg/kg.
As for `CC(C)=CCC[C@](C)(O)[C@@H]1CC=C(C)CC1` [(-)-alpha-Bisabolol], the figures for the “ED50” value in test [1] (listed as (-) alpha Bisabolol) and in test [2] were 1465 mg/kg and 1540 mg/kg, respectively.
`CC1=CC[C@@H]([C@]2(C)CCC(=O)C(C)(C)O2)CC1` [Bisabolonoxid]: the median effective dose (ED50) in test [1] is on record as more than 2000 mg/kg.
On to `CC1=CCC(C2(C)CCC(C(C)(C)O)O2)CC1` (stereo not drawn) [Bisabololoxid B], for which, in test [1], the “ED50” value is more than 2000 mg/kg.
For `CC1=CCC(C2(C)CCC(O)C(C)(C)O2)CC1` (stereo not drawn) [Bisabololoxid A], in test [1], the 50% effective dose (ED50) was 3164 mg/kg.
In the case of `CC(C)=CCC[C@@](C)(O)[C@H]1CC=C(C)CC1` [(+) alpha Bisabolol], the “ED50” value in test [1] is given as more than 2000 mg/kg.
